Measurements: PMC6940354, “Comparative Assessment of the New PDE7 Inhibitor – GRMS-55 and Lisofylline in Animal Models of Immune-Related Disorders: A PK/PD Modeling Approach” (Pharmaceutical Research, 2020)
Where “and” joins values, the source holds several entries; their conditions need not be identical. Identical values can stand only once.

Columns and labels:
[1] = system: collagen-induced arthritis (CIA) in female Lewis rats; test: Body weight, clinical score and paw areas in CIA rats; format: in vivo, rat; conditions: CIA rats vs control group; rolipram at all assessments post 20th day, (±)-LSF at 26, 33, and 36 day
Protocol: At a day 0 of the experiment animals were subcutaneously (SC) injected at the base of the tail with 200 μL of the emulsion using a 27 gauge × 5/8″ needle and Hamilton syringe. At day 7 after the initial immunization, a booster injection with 100 μL of emulsion was performed. Ninety % of rats developed symptoms of disease (paw swelling >150% of day 0) at day 20 of the experiment. At this day, diseased animals were randomly divided into five groups (n = 6). […] One investigated group received (±)-LSF dissolved in saline at an SC dose of 80 mg kg^−1 once daily. The corresponding control groups were administered with appropriate volumes of vehicles IP or SC. At day 40 animals were sacrificed. Hind paws of rats were taken and immersed into 4% buffered formalin solution for a subsequent histological analysis. Blood samples were collected and allowed to clot for 20 min and then centrifuged at 2000 x g for 15 min. Serum samples were collected and frozen at -80°C.
Body weight and paw size were measured, and clinical score was assessed at days 0, 5, 7, 11, 15, 18, 20, 22, 26, 30, 33, and 36 after the first immunization. Body weight of each rat was normalized to the body weight of the same rat at the day of the first immunization. Disease progression was evaluated by a qualitative clinical score (CS) as described elsewhere (1), where 0 – no symptoms of the disease, such as redness or swelling, 1 – mild, but definite redness and swelling, 2 – moderate redness and swelling, 3 – severe redness and swelling, and 4 – maximally inflamed limbs.

[2] = system: ConA-induced hepatitis in BALB/c mice; test: ConA-induced hepatitis in mice; format: in vivo, mouse; conditions: IP 30 min before ConA 20 mg kg^−1 IV, 8 h after ConA, rolipram 10 mg kg^−1, GRMS-55 and (±)-LSF 50 mg kg^−1, vs control group
Protocol: ConA was dissolved in an appropriate volume of saline for injections to obtain a concentration of 2 mg mL^−1. Each of the investigated compounds was dissolved in a vehicle composed of DMSO and PEG 400 mixed at a ratio of 1:9 (v/v). Thirty minutes before ConA administration, mice were injected intraperitoneally (IP) with the investigated compounds dissolved in the vehicle at a dose of 50 mg kg^−1 or with the corresponding volume of vehicle alone in the case of control group. ConA was administered by IV route at a dose of 20 mg kg^−1 and 8 h later mice were sacrificed. Blood samples were harvested from each individual and allowed to clot for 30 min at room temperature. Subsequently, serum was separated by centrifugation (3000 x g, 10 min), collected, and stored at −80°C until analysis.
TNF-α levels in LPS-stimulated rat blood in vitro and in rat plasma samples from the in vivo studies were analyzed by the Rat TNF-α Quantikine ELISA Immunoassay Kit (R&D Systems, USA) according to the manufacturer’s instructions. The assay was linear at the range of 12.5–800 pg mL^−1. Levels of TNF-α in mice serum were measured by ELISA Kits for Tumor Necrosis Factor Alpha (Cloud-Clone Corp., USA). This assay was linear at the range of 15.6–1000 pg mL^−1. Absorbance was measured at 450 nm using a POLARstar Omega multi-mode microplate reader (BMG LABTECH, Germany).
Serum […] (AST) and alanine transaminase (ALT) activity was analyzed using the chemistry analyzer BS-800 (Shenzhen Mindray Bio-medical Electronics Co. ltd, China).

hrPDE10A = hrPDE10A (Homo sapiens, UniProt Q9Y233); test: PDE-Glo Phosphodiesterase Assay, hrPDE10A
Protocol: (§1) Inhibitory activity of the investigated and reference compounds against various subtypes of PDEs was analyzed using the PDE-Glo Phosphodiesterase Assay following the manufacturer’s instruction (Promega Corp., USA). […] The values of IC50, Imax, and γ parameters of the investigated and reference compounds were estimated using non-linear regression in Phoenix WinNonlin v. […] Each sample was performed in quadruplicate and the relative activity of each sample was calculated as E=sample activity/control activity·100% .
(§2) One and a half μL aliquots of PDE-Glo reaction buffer containing appropriate amounts of human recombinant PDE (hrPDE) 1B, 2A, 3A, 4B, 4D, 5A, 7A, or 10A (SignalChem, Richmond, Canada) were placed into separate wells of a 384-well plate (Thermo Scientific, USA). The investigated compounds were initially dissolved in DMSO and then a serial dilution with DMSO was performed. Each dilution was mixed with PDE-Glo reaction buffer at a ratio of 1:5 (v/v). Then, 1 μL of the solution containing a PDE inhibitor and 2.5 μL of the substrate solution were added to each well. cGMP was used as a substrate in the case of hrPDE2A and hrPDE5A, while cAMP for other types of hrPDEs. The samples were incubated for 10 min at 30°C. […] The luminescence of each sample was measured by a microplate reader POLARstar Omega (BMG LABTECH, Germany).

hrPDE4D = hrPDE4D (Homo sapiens, UniProt Q08499); test: PDE-Glo Phosphodiesterase Assay, hrPDE4D
Protocol: as §1, §2

hrPDE4B = target: T1, hrPDE4B (Homo sapiens, UniProt Q07343); test: PDE-Glo Phosphodiesterase Assay, hrPDE4B; format: biochemical; conditions: for hrPDE4B inhibitory activity, times weaker than rolipram: ratio to the reference compound rolipram
T1 construct: purchased SignalChem, Richmond, Canada
Protocol: as §1
One and a half μL aliquots of PDE-Glo reaction buffer containing appropriate amounts of human recombinant PDE (hrPDE) 1B, 2A, 3A, 4B, 4D, 5A, 7A, or 10A (SignalChem, Richmond, Canada) were placed into separate wells of a 384-well plate (Thermo Scientific, USA). The investigated compounds were initially dissolved in DMSO and then a serial dilution with DMSO was performed. Each dilution was mixed with PDE-Glo reaction buffer at a ratio of 1:5 (v/v). Then, 1 μL of the solution containing a PDE inhibitor and 2.5 μL of the substrate solution were added to each well. cGMP was used as a substrate in the case of hrPDE2A and hrPDE5A, while cAMP for other types of hrPDEs. The samples were incubated for 10 min at 30°C. Subsequently, 2.5 μL volumes of PDE-Glo Termination Buffer and PDE-Glo Detection Solution were added to each well and after 20 min of incubation at room temperature, 10 μL of Kinase-Glo Reagent was added to each well. The luminescence of each sample was measured by a microplate reader POLARstar Omega (BMG LABTECH, Germany).

hrPDE1B = target: T2, hrPDE1B (Homo sapiens, UniProt Q01064); test: PDE-Glo Phosphodiesterase Assay, hrPDE1B; format: biochemical; conditions: cAMP substrate, read-out: IC50 PDE1B, Estimate (CV%)
T2 construct: purchased SignalChem, Richmond, Canada
T2 sequence (Q01064 whole entry): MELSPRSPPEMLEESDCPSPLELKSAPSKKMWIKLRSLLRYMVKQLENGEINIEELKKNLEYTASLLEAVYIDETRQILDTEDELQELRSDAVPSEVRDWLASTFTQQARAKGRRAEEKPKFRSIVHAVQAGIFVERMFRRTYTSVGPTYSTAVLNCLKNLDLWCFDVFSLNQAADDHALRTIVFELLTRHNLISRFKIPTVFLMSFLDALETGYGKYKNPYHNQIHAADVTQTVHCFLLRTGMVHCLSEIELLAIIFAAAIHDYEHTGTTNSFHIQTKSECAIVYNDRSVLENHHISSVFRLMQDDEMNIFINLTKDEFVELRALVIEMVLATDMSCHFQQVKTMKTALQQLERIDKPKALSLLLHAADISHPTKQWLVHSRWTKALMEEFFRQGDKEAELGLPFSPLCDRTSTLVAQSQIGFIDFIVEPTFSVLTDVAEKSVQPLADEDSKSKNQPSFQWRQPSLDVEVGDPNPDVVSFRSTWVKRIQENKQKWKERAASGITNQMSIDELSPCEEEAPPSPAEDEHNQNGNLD
Protocol: as §1, §2

T1 sequence (Q07343 whole entry): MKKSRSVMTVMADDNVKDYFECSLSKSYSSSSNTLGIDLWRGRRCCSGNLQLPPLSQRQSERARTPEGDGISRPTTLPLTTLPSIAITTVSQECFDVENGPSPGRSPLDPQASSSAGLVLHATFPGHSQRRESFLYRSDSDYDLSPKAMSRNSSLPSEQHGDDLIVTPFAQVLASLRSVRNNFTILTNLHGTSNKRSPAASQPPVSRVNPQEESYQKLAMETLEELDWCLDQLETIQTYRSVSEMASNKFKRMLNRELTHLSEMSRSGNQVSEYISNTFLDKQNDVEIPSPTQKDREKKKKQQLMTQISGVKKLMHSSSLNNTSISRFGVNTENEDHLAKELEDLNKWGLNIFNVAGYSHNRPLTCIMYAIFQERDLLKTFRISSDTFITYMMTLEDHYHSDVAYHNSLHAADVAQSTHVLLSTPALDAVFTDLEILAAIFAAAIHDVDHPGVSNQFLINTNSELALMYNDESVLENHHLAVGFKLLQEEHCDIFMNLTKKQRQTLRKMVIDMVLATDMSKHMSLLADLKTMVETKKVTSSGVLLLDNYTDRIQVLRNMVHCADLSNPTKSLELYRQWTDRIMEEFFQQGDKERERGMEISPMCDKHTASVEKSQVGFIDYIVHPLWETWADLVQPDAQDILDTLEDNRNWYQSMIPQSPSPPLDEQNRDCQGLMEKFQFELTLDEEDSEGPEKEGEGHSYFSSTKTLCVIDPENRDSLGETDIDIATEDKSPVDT
Chain of hrPDE4D (Q08499 whole entry): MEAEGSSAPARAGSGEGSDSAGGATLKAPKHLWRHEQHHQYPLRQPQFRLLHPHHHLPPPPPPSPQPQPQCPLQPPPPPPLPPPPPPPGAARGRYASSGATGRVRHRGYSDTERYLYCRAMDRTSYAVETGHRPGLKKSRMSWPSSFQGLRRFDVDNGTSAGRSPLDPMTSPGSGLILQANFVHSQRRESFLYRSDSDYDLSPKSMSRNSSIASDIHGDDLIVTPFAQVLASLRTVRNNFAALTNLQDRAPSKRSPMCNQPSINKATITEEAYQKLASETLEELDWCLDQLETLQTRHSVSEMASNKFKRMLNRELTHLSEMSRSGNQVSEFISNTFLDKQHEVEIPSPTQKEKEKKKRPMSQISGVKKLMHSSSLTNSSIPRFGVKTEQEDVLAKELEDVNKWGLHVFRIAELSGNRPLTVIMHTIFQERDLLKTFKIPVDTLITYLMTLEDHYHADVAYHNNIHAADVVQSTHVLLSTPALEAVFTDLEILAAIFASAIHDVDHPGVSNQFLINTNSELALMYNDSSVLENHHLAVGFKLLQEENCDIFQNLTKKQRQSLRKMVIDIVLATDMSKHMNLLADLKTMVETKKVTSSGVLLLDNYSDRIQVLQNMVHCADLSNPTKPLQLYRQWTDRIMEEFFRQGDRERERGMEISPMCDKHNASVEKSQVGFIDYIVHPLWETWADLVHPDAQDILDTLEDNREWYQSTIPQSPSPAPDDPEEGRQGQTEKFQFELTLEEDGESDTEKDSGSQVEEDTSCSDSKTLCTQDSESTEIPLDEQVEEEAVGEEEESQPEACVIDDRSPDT
Chain of hrPDE10A (Q9Y233 whole entry): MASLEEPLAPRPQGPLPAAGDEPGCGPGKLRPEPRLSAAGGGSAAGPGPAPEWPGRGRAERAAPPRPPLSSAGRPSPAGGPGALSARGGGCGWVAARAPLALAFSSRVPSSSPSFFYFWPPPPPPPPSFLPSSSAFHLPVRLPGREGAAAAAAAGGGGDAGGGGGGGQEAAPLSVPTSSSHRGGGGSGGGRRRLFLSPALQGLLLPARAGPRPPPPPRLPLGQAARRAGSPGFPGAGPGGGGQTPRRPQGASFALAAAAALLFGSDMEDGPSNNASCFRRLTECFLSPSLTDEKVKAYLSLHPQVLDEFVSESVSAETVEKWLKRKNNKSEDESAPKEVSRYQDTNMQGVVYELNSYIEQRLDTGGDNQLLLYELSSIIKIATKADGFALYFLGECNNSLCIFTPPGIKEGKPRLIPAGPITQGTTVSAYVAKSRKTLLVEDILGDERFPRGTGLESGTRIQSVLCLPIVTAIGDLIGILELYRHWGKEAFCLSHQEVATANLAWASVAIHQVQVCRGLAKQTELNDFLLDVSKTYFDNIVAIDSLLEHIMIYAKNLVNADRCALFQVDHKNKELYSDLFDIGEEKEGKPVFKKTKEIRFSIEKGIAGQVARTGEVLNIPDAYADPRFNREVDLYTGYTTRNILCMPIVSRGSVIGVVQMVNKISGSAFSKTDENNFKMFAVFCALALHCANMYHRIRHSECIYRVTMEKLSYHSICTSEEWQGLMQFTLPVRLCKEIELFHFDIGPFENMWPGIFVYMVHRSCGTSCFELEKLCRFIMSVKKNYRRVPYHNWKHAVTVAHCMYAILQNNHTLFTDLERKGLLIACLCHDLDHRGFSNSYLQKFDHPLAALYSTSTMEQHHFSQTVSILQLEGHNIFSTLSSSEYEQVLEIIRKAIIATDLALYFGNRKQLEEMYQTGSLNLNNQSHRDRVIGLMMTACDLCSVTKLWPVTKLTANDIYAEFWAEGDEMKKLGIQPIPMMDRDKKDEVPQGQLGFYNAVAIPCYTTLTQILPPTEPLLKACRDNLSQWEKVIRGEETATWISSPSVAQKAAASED

Structure (SMILES)	clinical score values (result in words) [1]	TNF-α release in mice serum (result in words) [2]	activities of transaminases (ALT, AST) in mice sera (result in words) [2]	IC50 (hrPDE10A) [µM]	IC50 (hrPDE4D) [µM]	IC50 (hrPDE4B; hrPDE4B, cAMP substrate, read-out: IC50 PDE4B, Estimate (CV%)) [µM]	hrPDE4B inhibitory activity, times weaker than rolipram (hrPDE4B) [times]	IC50 (hrPDE1B) [µM]	PDE4B inhibitory potency of GRMS-55 relative to (±)-LSF (hrPDE4B; GRMS-55 more potent than (±)-LSF in vitro)
CC(O)CCCCn1c(=O)c2c(ncn2C)n(C)c1=O (racemic) [(±)-LSF, lisofylline]	significantly lower	significantly reducing TNF-α levels	failed to decrease the activities of transaminases	> 100	> 200	50.8	45	12.9	–
Cn1c(=O)c2c(nc(NCCc3ccccc3)n2CCCC(=O)NN=Cc2ccccc2O)n(C)c1=O [GRMS-55, 4-(1,3-Dimethyl-2,6-dioxo-8-(phenethylamino)-2,3,6,7-tetrahydro-1H-purin-7-yl)-N′-(2-hydroxybenzylidene)butanehydrazide]	did not decreased significantly	most potently inhibited TNF-α release	significantly reduced	23.3	> 200	–	24	2.5	~ 2 times and ~ 2.0 times
COc1ccc(C2CNC(=O)C2)cc1OC1CCCC1 (stereo not shown) [Rolipram, rolipram]	significantly lower	most potently inhibited TNF-α release	significantly reduced	–	–	–	–	–	–
